Source: EP1724268A1, “COMPOUND HAVING TGF-BETA INHIBITORY ACTIVITY AND PHARMACEUTICAL COMPOSITION CONTAINING SAME” (KIRIN BEER KABUSHIKI KAISHA, priority 2004, dated 2005)
Like-named read-outs stand apart in the source and are kept apart here.

Key:
TGFβ signal = TGFβ signal inhibitory activity, (SBE)4-Luc reporter in A549 cells (Test Examples 1A and 1B); type: cell-based, human; conditions: Homo sapiens, A549, read-out: TGFβ inhibition rate, %
Method in brief: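 Compounds at 3 µM and 10 µM (some 1 µM) were added with 2 ng/ml TGFβ-1 to A549 cells stably expressing an SBE-driven luciferase, then cultured 4 hr. Chemiluminescent luciferase signal gave % inhibition versus TGFβ-alone and no-TGFβ controls.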

A549 cells = assay: Cell growth inhibitory activity using A549 cells (Test Example 6); type: cell-based, Human; conditions: for inhibition at 30 µM: Homo sapiens, A549, compound 30 µM, 5% serum, 40 hr, counting kit-8, read-out: Cell growth inhibition rate (%); for inhibitory activity against cell growth or BMP4 signals: as compared with Example 261 or Example 269 described in WO 03/00660
Procedure: Human lung cancer epithelial cells (A549) (available from ATCC) were suspended to a concentration of 3 × 10^4/ml in a DMEM/F12 medium containing 10%FCS, and the suspension was inoculated in 100 µl portions in wells of a 96-well plate. On the following day, a stock solution of the test compound which had been adjusted to 10 mM with DMSO was adjusted with a serum-free DMEM/F12 medium to a dose (60 µM) which was twice the evaluation concentration. After removing the medium inoculated in the 96 wells on the previous day, the solution was added in 50 µl portions to the plate. Next, a DMEM/F12 medium containing 10% serum was added in 50 µl portions to the wells, followed by culturing at 37°C for 40 hr. The final concentration of the serum and the concentration of the evaluation compound were 5% and 30 µM, respectively. The compounds according to the present invention synthesized in the working example were used as the test compound. […]
After 40 hr, the culture was removed, and 100 µl of a solution prepared by diluting counting kit-8 (purchased from Dojindo) with a serum-free F12 medium by 10 times was added, followed by culturing at 37°C for 20 to 30 min. After the confirmation of suitable color development, the absorbance at 450 nm was measured with ARVO (purchased from Wallach Bethold Japan). The cell growth inhibition in the test compound added wells were determined by presuming the absorbance value in the test compound-free wells to be 0% and the absorbance value in the cell-free wells to be 100%.

[1] = test compound 3 µM, TGFβ-1 2 ng/ml, 4 hr, Table 1A
[2] = test compound 10 µM, TGFβ-1 2 ng/ml, 4 hr, Table 1A
[3] = 3 µM, compounds of Reference Examples (Test Example 1B)
[4] = 10 µM, compounds of Reference Examples (Test Example 1B)
[5] = test compound 3 µM, Reference Examples, Table 1B
[6] = test compound 10 µM, Reference Examples, Table 1B

| SMILES | inhibition at 3 µM (TGFβ signal; [1]) [%] | inhibition at 3 µM (TGFβ signal; [3]) [%] | inhibition at 10 µM (TGFβ signal; [4]) [%] | other results |
| --- | --- | --- | --- | --- |
| CCc1ccc(Oc2ccnc3cc(C(N)=O)c(OC)cc23)c(-c2ccccn2)n1 [Compound 179, 4-(6-Ethyl-[2,2']bipyridinyl-3-yloxy)-6-methoxy-quinoline-7-carboxylic acid amide] | 100 |  |  | inhibition at 10 µM (TGFβ signal; [2]): 100%; inhibition at 30 µM (A549 cells): -3%; inhibitory activity against cell growth or BMP4 signals (A549 cells): reduced inhibitory activity |
| CCc1ccc(Oc2ccnc3ccc(OC(C)=O)cc23)c(-c2ccccn2)n1 [Compound 186, 4-(6-Ethyl-[2,2']bipyridinyl-3-yloxy)-quinolin-6-ylacetate] | 100 |  |  | inhibition at 10 µM (TGFβ signal; [2]): 100%; inhibition at 30 µM (A549 cells): -2% |
| Cc1ccc(Oc2ccnc3ccc(OCCO)cc23)c(-c2ccccn2)n1 [Compound 205, 2-[4-(6-Methyl-[2,2']bipyridyl-3-yloxy)-quinolin-6-yloxy]-ethanol] | 98 |  |  | inhibition at 30 µM (A549 cells): 9%; inhibitory activity against cell growth or BMP4 signals (A549 cells): reduced inhibitory activity |
| COc1cc2nccc(Oc3cc4cccnc4nc3-c3ccc(Cl)cc3)c2cc1OC [Compound 84, 2-(4-Chloro-phenyl)-3-(6,7-dimethoxy-quinolin-4-yloxy)-[1,8]naphthyridine] | 69 |  |  | inhibition at 10 µM (TGFβ signal; [2]): 100% |
| COc1cc2c(Oc3cc4ccccc4nc3C)ccnc2cc1OCCN(C)C [Compound r355] |  | 100 | 100 |  |
| Cc1cc(Oc2ccnc3cc(Br)ccc23)c(-c2ccccn2)nc1C [Compound 14, 3-(7-Bromo-quinolin-4-yloxy)-5,6-dimethyl-[2,2']bipyridine] | 100 |  |  | inhibition at 10 µM (TGFβ signal; [2]): 100% |
| COc1cc2nccc(Oc3ccc(C)nc3-c3cccc(C(F)(F)F)c3)c2cc1OC [Compound r230] |  | 60 | 97 |  |
| COc1cc2nccc(Oc3cccnc3C)c2cc1OC [r202] |  | 20 | 54 |  |
| COc1ccc2nccc(Oc3cc4cccnc4nc3-c3ccccc3)c2c1 [Compound 55, 3-(6-Methoxy-quinolin-4-yloxy)-2-phenyl-[1,8]naphthyridine] | 94 |  |  | inhibition at 10 µM (TGFβ signal; [2]): 100% |
| Cc1cc(Oc2ccnc3ccc(C(F)(F)F)cc23)c(-c2ccccn2)nc1C [Compound 3, 5,6-Dimethyl-3-(6-trifluoromethyl-quinolin-4-yloxy)-[2,2']bipyridine] | 99 |  |  | inhibition at 1 µM (TGFβ signal; test compound 1 µM, TGFβ-1 2 ng/ml, 4 hr, Table 1A): 79% |
| COc1cc2c(Oc3cc4cccnc4nc3C)ccnc2cc1OCCCCO [Compound r405] |  | 92 | 100 |  |
| CCCNC(=O)NCCOc1ccc2nccc(Oc3ccc(CC)nc3-c3ccccn3)c2c1 [Compound 189, 1-{2-[4-(6-Ethyl-[2,2']bipyridinyl-3-yloxy)-quinolin-6-yloxy]-ethyl}-3-propyl-urea] | 97 |  |  | inhibition at 10 µM (TGFβ signal; [2]): 99% |
| COC(=O)c1cc2c(Oc3cc4cccnc4nc3-c3ccccc3)ccnc2cc1Cl [Compound 148, Methyl 7-chloro-4-(2-phenyl-[1,8]naphthyridin-3-yloxy)-quinoline-6-carboxylate] | 58 |  |  | inhibition at 10 µM (TGFβ signal; [2]): 98% |
| Cc1cc(Oc2ncnc3sccc23)c(-c2ccccn2)nc1C [Compound 32, 5,6-Dimethyl-3-(thieno[2,3-d]pyrimidin-4-yloxy)-[2,2']bipyridine] | 64 |  |  | inhibition at 10 µM (TGFβ signal; [2]): 94% |
| COc1cc2nccc(Oc3cc(C)c(C)nc3-c3ccc(C)cn3)c2cc1OC [Compound r272] |  | 98 | 100 |  |
| COc1cc2c(Oc3ccc(C)cc3C(=O)c3ccccc3)ccnc2cc1OCCN1CCN(C)CC1 [Compound r129] |  |  |  | inhibition at 3 µM (TGFβ signal; [5]): 100%; inhibition at 10 µM (TGFβ signal; [6]): 100% |
| COc1cc2nccc(Oc3ccc(C)nc3[N+](=O)[O-])c2cc1OC [r210] |  | 45 | 80 |  |
| COc1ccc(Oc2ccnc3cc(OC)c(OC)cc23)c(C=O)c1 [Compound r26] |  |  |  | inhibition at 3 µM (TGFβ signal; [5]): 20%; inhibition at 10 µM (TGFβ signal; [6]): 73% |
| COc1cc2c(Oc3cc4ccccc4nc3C)ccnc2cc1OCC1CO1 (stereo not drawn) [Compound r383, 6-Methoxy-4-(2-methyl-quinolin-3-yloxy)-7-oxilanyl methoxy-quinoline] |  | 97 | 100 |  |
| COc1cc2nccc(Oc3ccc(C)cc3CN3CCCCC3)c2cc1OC [Compound r6, 6,7-Dimethoxy-4-[4-methyl-2-(piperidinomethyl)phenoxy]quinoline] |  |  |  | inhibition at 3 µM (TGFβ signal; [5]): 30%; inhibition at 10 µM (TGFβ signal; [6]): 72% |
| COc1cc2nccc(Oc3cc4cccnc4nc3C)c2cc1OC [Compound r310] |  | 72 | 97 |  |
| Fc1cc2nccc(Oc3cc4cccnc4nc3-c3ccccc3)c2cc1F [Compound 101] | 54 |  |  | inhibition at 10 µM (TGFβ signal; [2]): 98% |

| SMILES | inhibition at 3 µM (TGFβ signal; [1]) [%] | inhibition at 3 µM (TGFβ signal; [3]) [%] | inhibition at 10 µM (TGFβ signal; [4]) [%] | other results |
| --- | --- | --- | --- | --- |
| COc1cc2nccc(Oc3ccccc3C(=O)OC(C)C)c2cc1OC [Compound r93] |  |  |  | inhibition at 3 µM (TGFβ signal; [5]): 44%; inhibition at 10 µM (TGFβ signal; [6]): 88% |
| COc1cc2c(Oc3cc4ccccc4nc3C)ccnc2cc1OCCCN1CCCCC1 [Compound r378] |  | 100 | 100 |  |
| Cc1ccc(-c2nc(C)c(C)cc2Oc2ccnc3cc(Cl)ccc23)nc1 [Compound r432] |  | 99 | 100 |  |
| COc1cc2nccc(Oc3ccc(C)nc3-c3ccc(C)cc3)c2cc1OC [Compound r242] |  | 68 | 99 |  |
| c1ccc(-c2nc3ncccc3cc2Oc2ccnc3ccncc23)cc1 [Compound 74, 4-(2-Phenyl-[1,8]naphthyridin-3-yloxy)-[1,6]naphthyridine] | 53 |  |  | inhibition at 10 µM (TGFβ signal; [2]): 90% |
| COc1cc2nccc(Oc3cc4ccccc4nc3C)c2cc1OCc1ccccc1 [Compound r415, 6-Benzyloxy-7-methoxy-4-(2-methyl-quinolin-3-yloxy)-quinoline] |  | 77 | 100 |  |
| COc1cc2nccc(Oc3cc(C)nc4ccccc34)c2cc1OC [Compound r309] |  | 41 | 79 |  |
| COc1ccc(Oc2ccnc3cc(OCCCN4CCOCC4)c(OC)cc23)c(C(C)=O)c1 [r122] |  |  |  | inhibition at 3 µM (TGFβ signal; [5]): 100%; inhibition at 10 µM (TGFβ signal; [6]): 100% |
| COc1cc2nccc(Oc3cc4ccccc4cc3C(=O)Nc3cccc4ccccc34)c2cc1OC [r114] |  |  |  | inhibition at 3 µM (TGFβ signal; [5]): 0%; inhibition at 10 µM (TGFβ signal; [6]): 96% |
| COc1cc2nccc(Oc3cc4cccnc4nc3-c3ccccc3)c2cc1OCCO [Compound 125, 2-[7-Methoxy-4-(2-phenyl-[1,8]naphthyridin-3-yloxy)-quinolin-6-yloxy]-ethanol] | 99 |  |  | inhibition at 10 µM (TGFβ signal; [2]): 100% |
| COc1cc2nccc(Oc3cc4c5c(c3C=O)CCCN5CCC4)c2cc1OC [Compound r28] |  |  |  | inhibition at 3 µM (TGFβ signal; [5]): 0%; inhibition at 10 µM (TGFβ signal; [6]): 53% |
| COc1cc2nccc(Oc3cc4ccccc4nc3I)c2cc1OC [r282] |  | 96 | 100 |  |
| CCCCC(CC)COC(=O)c1ccccc1Oc1ccnc2cc(OC)c(OC)cc12 (stereo not drawn) [Compound r101] |  |  |  | inhibition at 3 µM (TGFβ signal; [5]): 0%; inhibition at 10 µM (TGFβ signal; [6]): 64% |
| COc1cc2nccc(Oc3cc(C)c(C)nc3-c3ncccc3C)c2cc1OC [r429] |  | 52 | 94 |  |
| COc1cc2nccc(Oc3ccc(C)cc3Nc3ccccc3)c2cc1OC [Compound r14, N-[2-[(6,7-Dimethoxy-4-quinolyl)oxy]-5-methylphenyl]-N-phenylamine] |  |  |  | inhibition at 3 µM (TGFβ signal; [5]): 15%; inhibition at 10 µM (TGFβ signal; [6]): 64% |
| CCCCC(O)c1cc(C)ccc1Oc1ccnc2cc(OC)c(OC)cc12 (stereo not drawn) [r10] |  |  |  | inhibition at 3 µM (TGFβ signal; [5]): 38%; inhibition at 10 µM (TGFβ signal; [6]): 87% |
| COc1cc2c(Oc3cc4ccccc4nc3C)ccnc2cc1OCCO [Compound r369] |  | 99 | 100 |  |
| COc1cc2c(Oc3cc4ccccc4nc3C)ccnc2cc1OC[C@@H](O)CO [Compound r385] |  | 100 | 100 |  |
| COc1cc2nccc(Oc3cccnc3Br)c2cc1OC [r203] |  | 19 | 52 |  |
| CCCCOC(=O)c1ccccc1Oc1ccnc2cc(OC)c(OC)cc12 [Compound r98] |  |  |  | inhibition at 3 µM (TGFβ signal; [5]): 4%; inhibition at 10 µM (TGFβ signal; [6]): 93% |
| COc1cc2nccc(Oc3ccc(F)cc3C(C)=O)c2cc1OC [r33] |  |  |  | inhibition at 3 µM (TGFβ signal; [5]): 27%; inhibition at 10 µM (TGFβ signal; [6]): 94% |
